Assay results taken from article PMC7382501 (Nature Communications, 2020).

Assays:
FasRL106F = FasRL106F (Mycobacterium tuberculosis, UniProt O05858, L106F); format: biochemical
FasRLVL = FasRLVL (Mycobacterium tuberculosis, UniProt O05858, L106F/L185F/V163F); format: biochemical
FasRF123A = FasRF123A (Mycobacterium tuberculosis, UniProt O05858, F123A); format: binding

Structure (SMILES): CCCCCCCCCCCCCCCCCCCC(=O)SCCNC(=O)CCNC(=O)[C@H](O)C(C)(C)COP(=O)(O)OP(=O)(O)OC[C@H]1O[C@@H](n2cnc3c(N)ncnc32)[C@H](O)[C@@H]1OP(=O)(O)O [C20-CoA, arachidoyl-CoA]
- acyl-CoA concentration at which the protein–DNA complex dissociates (FasRL106F): > 4 µM
- protein–DNA complex in the presence of ligand (FasRLVL): remained bound to DNA
- SPR association of FasRF123A to C20-CoA compared with FasRwt (FasRF123A): comparable association kinetics
